Structures are written as SMILES. Where a name gives a salt, the structure may show the parent alone.

Data set [1] is described as follows: storage stability of the solid form in a closed container (PXRD). The data set is classed as physicochemical. As for the experimental part:
Further, the premix of amorphous solid dispersion with Soluplus is also unstable as depicted in FIG. 8.
In another aspect, the present application provides a crystalline Form OMT-D of Omecamtiv mecarbil dihydrochloride, characterized by a PXRD pattern comprising the peaks at about 12.98, 15.79, 18.55 and 25.63°±0.2° 2θ. In embodiments, the crystalline Form OMT-D of Omecamtiv mecarbil dihydrochloride is characterized by an additional peak at about 20.41°±0.2° 2θ. In embodiments, the application provides crystalline Form OMT-D of Omecamtiv mecarbil dihydrochloride, characterized by a PXRD pattern of FIG. 14. In embodiments, crystalline Form OMT-D of Omecamtiv mecarbil dihydrochloride is a solvate with dimethyl sulfoxide. In embodiments, crystalline Form OMT-D is monosolvate with dimethyl sulfoxide. In embodiments, crystalline Form OMT-D is stable for atleast 45 days stored in a closed container. In embodiments, the crystalline Form OMT-D is characterized by a thermogram of FIG. 16.

The conditions of data set [2]: described in the '270 application; cited from earlier work.

For the compound `COC(=O)N1CCN(Cc2cccc(NC(=O)Nc3ccc(C)nc3)c2F)CC1` [Omecamtiv mecarbil dihydrochloride], the “stability of amorphous state (result in words)” value in data set [1] (as depicted by PXRD in FIG. 5 / FIG. 8) is recorded as “unstable”.
Take `COC(=O)N1CCN(Cc2cccc(NC(=O)Nc3ccc(C)nc3)c2F)CC1` [Form OMT-D, Omecamtiv mecarbil dihydrochloride]: the “stable for at least (time stored)” value in data set [1] (stored in a closed container) is at least 45 days.
Regarding `COC(=O)N1CCN(Cc2cccc(NC(=O)Nc3ccc(C)nc3)c2F)CC1` [anhydrous form B, Omecamtiv mecarbil dihydrochloride], the “stability of crystalline form (result in words)” value in data set [2] is given as “metastable”.

Values taken from patent US20220402874A1, “SOLID FORMS OF OMECAMTIV MECARBIL DIHYDROCHLORIDE AND PROCESSES THEREOF” (DR. REDDY'S LABORATORIES LIMITED, priority 2019, published 2022).
